Assay results as given in US20070189997A1, “Skin-whitening agent containing polyphenol compound” (Nichirei Foods Inc., priority 2004, published 2007).
Several values for one entry are separate records, joined by “and”; a condition that tells them apart may be missing. Equal values may be shown once.

Assays:
mushroom tyrosinase [1] = experiment: Inhibition of tyrosinase activity (L-Dopa, absorbance at 475 nm), procedure of Example 3; format: biochemical; conditions: for effects of inhibiting tyrosinase activity (FIG. 1, 3, 4): 25° C., various concentrations in DMSO; for effects for inhibiting tyrosinase activity relative to kojic acid: compared with kojic acid, Table 2; for IC50: procedure of Example 3, read-out: Concentration at which 50% of tyrosinase activity is inhibited
Protocol: 1/15M phosphate buffer (70 μl, pH 6.8), 2 μl each of sample solutions of the C18-adsorbed fraction obtained in Example 1 dissolved in dimethyl sulfoxide (DMSO) at various concentrations, and 70 μl (10 U) of mushroom tyrosinase (Calzyme Laboratories) dissolved in the buffer were mixed, and the mixture was incubated at 25° C. for 10 minutes. Thereafter, 70 μl of 10 mM L-Dopa was added to initiate the reaction, the absorbance at 475 nm was assayed every 20 seconds for 2 minutes, and the inhibition (%) of tyrosinase activity was calculated using the following equation. […] Further, PVPP resin was added to the supernatant to a concentration of 1%, and the resultant was also agitated for 1.5 hours, followed by centrifugation to obtain a supernatant. […] The sample was dissolved in 1/15M phosphate buffer (pH 6.8) instead of DMSO. The polyphenol content was assayed in the same manner as in Example 1.

tyrosinase [2] = experiment: Tyrosinase activity inhibition, C18-adsorbed fraction and ascorbic acid alone and combined (Example 12, absorbance at 450 nm); format: biochemical, mushroom
Protocol: A sample (or a combination of two types of samples) was dissolved in DMSO and diluted with DMSO at adequate concentrations.
A tyrosinase solution (70 μl, 10 U/70 μl, Calzyme Laboratories, Inc.), 70 μl of 1/15M phosphate buffer (Wako Pure Chemical Industries, Ltd.), and 4 μl each of the samples dissolved in DMSO at various concentrations were introduced into separate wells of a 96-well plate. DMSO was added to a control sample instead of a sample solution.
After the pre-incubation was carried out at 25° C. for 10 minutes, 70 μl of 10 mM L-DOPA (Wako Pure Chemical Industries, Ltd.) was added, the mixture was mixed immediately thereafter, and the absorbance at 450 nm was assayed every 20 seconds for 2 minutes. Change (slope) in the absorbance per unit time thus assayed was designated as the initial rate, and the inhibition (%) was determined by the following equation. Inhibition (%)={1−(initial ratesample/initial ratecontrol)}×100
The terms “additive effect” and “synergistic effect” are described. When tyrosinase activity inhibition (%) by the C18-adsorbed fraction alone at a concentration of A μg/ml is X (%) and tyrosinase activity inhibition (%) by ascorbic acid alone at a concentration of B μg/ml is Y (%), the case where the value Z for the tyrosinase activity inhibition (%) assayed upon the reaction of the C18-adsorbed fraction at a concentration of A μg/ml with ascorbic acid at a concentration of B μg/ml is equal to the sum of X+Y is evaluated as “C18-adsorbed fraction additively reacts with ascorbic acid.” The case where the value Z is greater than the sum of X+Y is evaluated as “C18-adsorbed fraction synergistically reacts with ascorbic acid.” When the value Z is smaller than the sum of X+Y, the C18-adsorbed fraction and ascorbic acid attenuate their effects each other.

mushroom tyrosinase [3] = experiment: Test of anthocyanidin compounds for inhibiting tyrosinase activity (Example 11, IC50); format: biochemical; conditions: for IC50: 25° C., L-Dopa, 475 nm
Protocol: The sample compounds were dissolved in DMSO and diluted with DMSO at adequate concentrations.
1/15M phosphate buffer (70 μl), 70 μl of a solution containing mushroom tyrosinase adjusted at 1 U/μl with a buffer, and 2 μl each of sample solutions dissolved in DMSO at various concentrations were introduced into separate wells of a 96-well plate, and these substances were thoroughly mixed, followed by incubation at 25° C. for 10 minutes.
A solution of 10 mM L-Dopa (70 μl) was added and mixed in immediately thereafter. […] The reaction was carried out at 25° C.
Change (slope) in the absorbance per unit time was designated as the initial rate, and the inhibition of tyrosinase activity (%) was determined by the following equation. Inhibition (%)={1−(initial ratesample/initial ratecontrol)}×100

tyrosinase [4] = conditions: cited from earlier work
[5] = in vivo; cited from earlier work

Row | SMILES | IC50 (mushroom tyrosinase [3]) [µM] | effects of inhibiting tyrosinase activity (mushroom tyrosinase [3]) | effects of inhibiting tyrosinase activity (Non-Patent Document 1) (tyrosinase [4]) | other results
1 | O=C1O[C@H]([C@@H](O)CO)C(O)=C1O [Ascorbic acid, ascorbic acid] |  |  |  | Inhibition of tyrosinase activity (%) (mushroom tyrosinase [1]; Ascorbic acid 33.3 μM): 5.49%; Mean of tyrosinase activity inhibition (n = 3) (tyrosinase [2]; ascorbic acid alone 2.4 μg/ml): −1.3%; Mean of tyrosinase activity inhibition (n = 3) (tyrosinase [2]; ascorbic acid alone 4.7 μg/ml): 1.0% and 1.0 ± 3.4%; Mean of tyrosinase activity inhibition (n = 3) (tyrosinase [2]; ascorbic acid alone 9.4 μg/ml): 9.0% and 9.0 ± 2.9%; Mean of tyrosinase activity inhibition (n = 3) (tyrosinase [2]; ascorbic acid alone 47.2 μg/ml): 95.0%; tyrosinase inhibitory activity (tyrosinase [2]; ascorbic acid at a concentration up to 9.4 μg/ml): inhibitory activity was not observed very much; tyrosinase inhibitory activity (tyrosinase [2]; ascorbic acid at a final concentration of 47.2 μg/ml): almost completely inhibited
2 | C[C@@H]1O[C@@H](O[C@H]2C(=O)c3c(O)cc(O)cc3O[C@@H]2c2ccc(O)c(O)c2)[C@H](O)[C@H](O)[C@H]1O [Astilbin, dehydroquercitrin] | > 2000 |  |  | 
3 | OC[C@H]1O[C@@H](Oc2cc3c(O)cc(O)cc3[o+]c2-c2ccc(O)c(O)c2)[C@H](O)[C@@H](O)[C@@H]1O [Cyanidin-3-glucoside, reference compound] | 84 |  |  | 
4 | COc1cc(-c2[o+]c3cc(O)cc(O)c3cc2O)cc(OC)c1O [Malvidin chloride] | 0.4 | particularly potent | neither delphinidin, cyanidin, and malvidin have effects of inhibiting tyrosinase activity | 
5 | O=c1cc(CO)occ1O [Kojic acid] |  |  |  | potential cause of liver cancer in animal tests [5]: found to be a potential cause of liver cancer

Second part, led by results:

Row | IC50 (mushroom tyrosinase [3]) [µM] | SMILES | effects of inhibiting tyrosinase activity (mushroom tyrosinase [3]) | effects of inhibiting tyrosinase activity (Non-Patent Document 1) (tyrosinase [4]) | other results
6 | 11 | Oc1cc(O)c2cc(O)c(-c3ccc(O)c(O)c3)[o+]c2c1.[Cl-] [Cyanidin chloride] | found to have effects of inhibiting tyrosinase activity | neither delphinidin, cyanidin, and malvidin have effects of inhibiting tyrosinase activity | 
7 | 20 | Oc1ccc(-c2[o+]c3cc(O)cc(O)c3cc2O)cc1 [Pelargonidin chloride] | found to have effects of inhibiting tyrosinase activity |  | 
8 | 5.7 | CC1O[C@@H](Oc2cc3c(O)cc(O)cc3[o+]c2-c2ccc(O)cc2)[C@@H](O)C(O)[C@H]1O (some centres unmarked) [P3R, pelargonidin-3-rhamnoside] |  |  | effects of inhibiting tyrosinase activity (FIG. 1, 3, 4) (mushroom tyrosinase [1]): found to have effects of inhibiting tyrosinase activity; effects for inhibiting tyrosinase activity relative to kojic acid (mushroom tyrosinase [1]): about 6 times; IC50 (mushroom tyrosinase [1]): 5.7 µM
9 | 33 | C[C@@H]1O[C@@H](Oc2cc3c(O)cc(O)cc3[o+]c2-c2ccc(O)c(O)c2)[C@H](O)[C@H](O)[C@H]1O.[Cl-] [C3R, cyanidin-3-rhamnoside] |  |  | effects of inhibiting tyrosinase activity (FIG. 1, 3, 4) (mushroom tyrosinase [1]): found to have effects of inhibiting tyrosinase activity; effects for inhibiting tyrosinase activity relative to kojic acid (mushroom tyrosinase [1]): equivalent to those of kojic acid; IC50 (mushroom tyrosinase [1]): 33 µM
10 | 16.4 | Oc1cc(O)c2cc(O)c(-c3cc(O)c(O)c(O)c3)[o+]c2c1 [Delphinidin chloride] | found to have effects of inhibiting tyrosinase activity | neither delphinidin, cyanidin, and malvidin have effects of inhibiting tyrosinase activity | 
